tested on: cancer cells; assay: MTT cytotoxic assay of esterification products (Cytotoxicity activity); format: cell-based, human; conditions: E4A esterified with 2-propenoyl chloride (Ppe = Propenoyl), compounds isolated with HPLC
Method in brief: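 Cytotoxicity was read by MTT (Carmichael method, modified), with cells seeded 24 h ahead of treatment. Sixteen human cancer lines spanning bone, lung, bladder, ovary, colon, pancreas, prostate, skin, mouth, kidney, breast, liver, brain, leukemia and cervix were used. Test samples were acyl chloride esterification products of triterpenes, as mixtures or HPLC-purified compounds.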

SMILES	Cytotoxicity activity
CC1(C)CC2C3=CCC4C5(C)CCC(O)C(C)(CO)C5CCC4(C)C3(C)CC(O)C2(COC(=O)c2ccccc2)C(OC(=O)c2ccccc2)C1OC(=O)c1ccccc1 (stereo not drawn) [Compound K20]	moderate

same assay, conditions: E4A esterified with Acetyl chloride (Acy = Acetyl), compounds isolated with HPLC

SMILES	Cytotoxicity activity
CC(=O)OCC1(C)C(O)CCC2(C)C1CCC1(C)C2CC=C2C3CC(C)(C)C(O)C(OC(C)=O)C3(COC(C)=O)C(OC(C)=O)CC21C (stereo not drawn) [Compound H12]	weak
CC(=O)OCC1(C)C(O)CCC2(C)C1CCC1(C)C2CC=C2C3CC(C)(C)C(OC(C)=O)C(OC(C)=O)C3(CO)C(O)CC21C (stereo not drawn) [Compound H21]	moderate

same assay, conditions: E4A esterified with Cinnamoyl chloride (Cin = Cinnamoyl), compounds isolated with HPLC

SMILES	Cytotoxicity activity
CC1(C)CC2C3=CCC4C5(C)CCC(O)C(C)(CO)C5CCC4(C)C3(C)CC(O)C2(CO)C(OC(=O)C=Cc2ccccc2)C1OC(=O)C=Cc1ccccc1 (stereo not drawn) [Compound J24]	moderate
CC1(C)CC2C3=CCC4C5(C)CCC(O)C(C)(COC(=O)C=Cc6ccccc6)C5CCC4(C)C3(C)CC(O)C2(CO)C(OC(=O)C=Cc2ccccc2)C1OC(=O)C=Cc1ccccc1 (stereo not drawn) [Compound J21]	moderate

same assay, conditions: E4A esterified with Crotonoyl chloride (Cro = Crotonoyl), compounds isolated with HPLC

SMILES	Cytotoxicity activity
CC=CC(=O)OCC1(C)C(O)CCC2(C)C1CCC1(C)C2CC=C2C3CC(C)(C)C(OC(=O)C=CC)C(OC(=O)C=CC)C3(COC(=O)C=CC)C(O)CC21C (stereo not drawn) [Compound I8]	weak
CC=CC(=O)OCC12C(OC(=O)C=CC)CC3(C)C(=CCC4C5(C)CCC(O)C(C)(CO)C5CCC43C)C1CC(C)(C)C(O)C2O (stereo not drawn) [Compound I28]	moderate
CC=CC(=O)OC1C(OC(=O)C=CC)C2(CO)C(OC(=O)C=CC)CC3(C)C(=CCC4C5(C)CCC(O)C(C)(CO)C5CCC43C)C2CC1(C)C (stereo not drawn) [Compound I22]	moderate

same assay, conditions: E4A esterified with Propionyl chloride (Ppi = Propionyl), compounds isolated with HPLC

SMILES	Cytotoxicity activity
CC1(C)CC2C3=CCC4C5(C)CCC(O)C(C)(CO)C5CCC4(C)C3(C)CC(O)C2(COC(=O)c2ccccc2)C(OC(=O)c2ccccc2)C1OC(=O)c1ccccc1 (stereo not drawn) [Compound K20]	moderate

same assay, conditions: E4A esterified with benzoyl chloride (Ben = benzoyl), compounds isolated with HPLC

SMILES	Cytotoxicity activity
CC1(C)CC2C3=CCC4C5(C)CCC(O)C(C)(CO)C5CCC4(C)C3(C)CC(O)C2(COC(=O)c2ccccc2)C(OC(=O)c2ccccc2)C1OC(=O)c1ccccc1 (stereo not drawn) [Compound K20]	moderate

same assay, conditions: MTT cytotoxic assay, isolated esterification products of E4A

SMILES	Cytotoxicity activity
C=CCCC(=O)OCC1(C)C(O)CCC2(C)C1CCC1(C)C2CC=C2C3CC(C)(C)C(OC(=O)CCC=C)C(OC(=O)CCC=C)C3(COC(=O)CCC=C)C(O)CC21C (stereo not drawn) [Compound C8]	weak
CCCCCC(=O)OCC12C(O)CC3(C)C(=CCC4C5(C)CCC(O)C(C)(CO)C5CCC43C)C1CC(C)(C)C(O)C2OC(=O)CCCCC (stereo not drawn) [Compound D26]	moderate
CCCCCC(=O)OCC1(C)C(OC(=O)CCCCC)CCC2(C)C1CCC1(C)C2CC=C2C3CC(C)(C)C(O)C(O)C3(CO)C(O)CC21C (stereo not drawn) [Compound D31]	moderate
CC(C)=CC(=O)OCC1(C)C(OC(=O)C=C(C)C)CCC2(C)C1CCC1(C)C2CC=C2C3CC(C)(C)C(O)C(OC(=O)C=C(C)C)C3(COC(=O)C=C(C)C)C(O)CC21C (stereo not drawn) [Compound B14]	weak
CC(C)=CC(=O)OCC12C(O)CC3(C)C(=CCC4C5(C)CCC(O)C(C)(CO)C5CCC43C)C1CC(C)(C)C(O)C2OC(=O)C=C(C)C (stereo not drawn) [Compound B26]	moderate
CC(C)=CC(=O)OC1C(OC(=O)C=C(C)C)C2(CO)C(O)CC3(C)C(=CCC4C5(C)CCC(O)C(C)(CO)C5CCC43C)C2CC1(C)C (stereo not drawn) [Compound B24]	moderate
CC=C(C)C(=O)OCC12C(O)CC3(C)C(=CCC4C5(C)CCC(OC(=O)C(C)=CC)C(C)(CO)C5CCC43C)C1CC(C)(C)C(O)C2O (stereo not drawn) [Compound A27]	moderate
CC(C)=CC(=O)OCC1(C)C(O)CCC2(C)C1CCC1(C)C2CC=C2C3CC(C)(C)C(OC(=O)C=C(C)C)C(O)C3(CO)C(O)CC21C (stereo not drawn) [Compound B29]	moderate
CC(C)=CC(=O)OCC1(C)C(OC(=O)C=C(C)C)CCC2(C)C1CCC1(C)C2CC=C2C3CC(C)(C)C(OC(=O)C=C(C)C)C(O)C3(COC(=O)C=C(C)C)C(OC(=O)C=C(C)C)CC21C (stereo not drawn) [Compound B17]	weak
C=CCCC(=O)OCC1(C)C(OC(=O)CCC=C)CCC2(C)C1CCC1(C)C2CC=C2C3CC(C)(C)C(OC(=O)CCC=C)C(O)C3(COC(=O)CCC=C)C(OC(=O)CCC=C)CC21C (stereo not drawn) [Compound C17]	weak
CC(C)=CC(=O)OCC1(C)C(OC(=O)C=C(C)C)CCC2(C)C1CCC1(C)C2CC=C2C3CC(C)(C)C(OC(=O)C=C(C)C)C(OC(=O)C=C(C)C)C3(COC(=O)C=C(C)C)C(OC(=O)C=C(C)C)CC21C (stereo not drawn) [Compound B19]	none
C=CCCC(=O)OCC1(C)C(OC(=O)CCC=C)CCC2(C)C1CCC1(C)C2CC=C2C3CC(C)(C)C(OC(=O)CCC=C)C(OC(=O)CCC=C)C3(COC(=O)CCC=C)C(OC(=O)CCC=C)CC21C (stereo not drawn) [Compound C19]	none
CCCCCC(=O)OCC12C(O)CC3(C)C(=CCC4C5(C)CCC(O)C(C)(CO)C5CCC43C)C1CC(C)(C)C(OC(=O)CCCCC)C2O (stereo not drawn) [Compound D25]	moderate
CCC(CC)C(=O)OCC12C(O)CC3(C)C(=CCC4C5(C)CCC(O)C(C)(CO)C5CCC43C)C1CC(C)(C)C(O)C2O (stereo not drawn) [Compound E2]	moderate
CC(C)=CC(=O)OCC1(C)C(O)CCC2(C)C1CCC1(C)C2CC=C2C3CC(C)(C)C(OC(=O)C=C(C)C)C(O)C3(COC(=O)C=C(C)C)C(O)CC21C (stereo not drawn) [Compound B4]	moderate
C=CCCC(=O)OCC1(C)C(O)CCC2(C)C1CCC1(C)C2CC=C2C3CC(C)(C)C(OC(=O)CCC=C)C(O)C3(COC(=O)CCC=C)C(OC(=O)CCC=C)CC21C (stereo not drawn) [Compound C13]	weak
C=CCCC(=O)OCC12C(O)CC3(C)C(=CCC4C5(C)CCC(O)C(C)(CO)C5CCC43C)C1CC(C)(C)C(O)C2O (stereo not drawn) [Compound C2]	moderate
CC(C)=CC(=O)OCC12C(OC(=O)C=C(C)C)CC3(C)C(=CCC4C5(C)CCC(O)C(C)(CO)C5CCC43C)C1CC(C)(C)C(O)C2O (stereo not drawn) [Compound B28]	moderate

same assay, conditions: esterification products isolated with HPLC; graded strong / moderate / weak

SMILES	Cytotoxicity activity
CC=C(C)C(=O)OCC1(C)C(O)CCC2(C)C1CCC1(C)C2CC=C2C3CC(C)(C)C(OC(=O)C(CC)CC)C(O)C3(CO)C(O)CC21C (stereo not drawn) [Tig—Eth—5]	moderate
CC=C(C)C(=O)OCC1(C)C(O)CCC2(C)C1CCC1(C)C2CC=C2C3CC(C)(C)C(O)C(OC(=O)C(C)=CC)C3(CO)C(O)CC21C (stereo not drawn) [Tig—Ang—6]	moderate
CC=CC(=O)OC1CCC2(C)C(CCC3(C)C2CC=C2C4CC(C)(C)C(O)C(OC(=O)C=CC)C4(COC(=O)C(C)=CC)C(O)CC23C)C1(C)COC(=O)C(C)=CC (stereo not drawn) [Tig—R—Cro—6]	weak
C=CCCC(=O)OCC12C(O)CC3(C)C(=CCC4C5(C)CCC(O)C(C)(COC(=O)C(C)=CC)C5CCC43C)C1CC(C)(C)C(O)C2O (stereo not drawn) [Tig—Pen—1]	strong
CC=CC(=O)OCC12C(O)CC3(C)C(=CCC4C5(C)CCC(OC(=O)C=CC)C(C)(COC(=O)C(C)=CC)C5CCC43C)C1CC(C)(C)C(O)C2O (stereo not drawn) [Tig—Cro—4]	moderate
CC=C(C)C(=O)OCC1(C)C(O)CCC2(C)C1CCC1(C)C2CC=C2C3CC(C)(C)C(OC(C)=O)C(O)C3(COC(=O)C(C)=CC)C(O)CC21C (stereo not drawn) [Tig—R—Acy—2]	moderate
CC=C(C)C(=O)OCC1(C)C(O)CCC2(C)C1CCC1(C)C2CC=C2C3CC(C)(C)C(OC(=O)CCCCC)C(O)C3(CO)C(O)CC21C (stereo not drawn) [Tig—Hex—5]	moderate
CC=CC(=O)OC1CCC2(C)C(CCC3(C)C2CC=C2C4CC(C)(C)C(O)C(O)C4(COC(=O)C(C)=CC)C(O)CC23C)C1(C)COC(=O)C(C)=CC (stereo not drawn) [Tig—R—Cro—4]	moderate
CC=CC(=O)OCC12C(O)CC3(C)C(=CCC4C5(C)CCC(O)C(C)(COC(=O)C(C)=CC)C5CCC43C)C1CC(C)(C)C(O)C2O (stereo not drawn) [Tig—Cro—1]	strong
CC=C(C)C(=O)OCC1(C)C(O)CCC2(C)C1CCC1(C)C2CC=C2C3CC(C)(C)C(OC(=O)C=C(C)C)C(O)C3(COC(=O)C(C)=CC)C(O)CC21C (stereo not drawn) [Tig—R—Sen—2]	moderate
CC=C(C)C(=O)OCC1(C)C(OC(C)=O)CCC2(C)C1CCC1(C)C2CC=C2C3CC(C)(C)C(O)C(O)C3(COC(C)=O)C(O)CC21C (stereo not drawn) [Tig—Acy—4]	moderate
CC=C(C)C(=O)OCC1(C)C(O)CCC2(C)C1CCC1(C)C2CC=C2C3CC(C)(C)C(O)C(OC(=O)C(C)=CC)C3(COC(=O)C(C)=CC)C(O)CC21C (stereo not drawn) [Tig—Ang—3]	moderate
C=CCCC(=O)OCC12C(O)CC3(C)C(=CCC4C5(C)CCC(O)C(C)(COC(=O)C(C)=CC)C5CCC43C)C1CC(C)(C)C(OC(=O)CCC=C)C2O (stereo not drawn) [Tig—Pen—2]	moderate
CC=C(C)C(=O)OCC1(C)C(OC(C)=O)CCC2(C)C1CCC1(C)C2CC=C2C3CC(C)(C)C(OC(C)=O)C(O)C3(COC(=O)C(C)=CC)C(O)CC21C (stereo not drawn) [Tig—R—Acy—5]	weak

same assay, conditions: esterification products of core compound E4A with (2E)-2-pentenoyl chloride (2pe = 2-pentenoyl)

SMILES	Cytotoxicity activity
CC1(C)CC2C3=CCC4C5(C)CCC(O)C(C)(CO)C5CCC4(C)C3(C)CC(O)C2(COC(=O)c2ccccc2)C(OC(=O)c2ccccc2)C1OC(=O)c1ccccc1 (stereo not drawn) [Compound K20]	moderate

same assay, conditions: esterification products of core compound E4A with Butyryl chloride (But = Butyryl)

SMILES	Cytotoxicity activity
CC1(C)CC2C3=CCC4C5(C)CCC(O)C(C)(CO)C5CCC4(C)C3(C)CC(O)C2(COC(=O)c2ccccc2)C(OC(=O)c2ccccc2)C1OC(=O)c1ccccc1 (stereo not drawn) [Compound K20]	moderate

same assay, conditions: esterification products of core compound E4A with Decanoyl chloride (Dec = Decanoyl)

SMILES	Cytotoxicity activity
CC1(C)CC2C3=CCC4C5(C)CCC(O)C(C)(CO)C5CCC4(C)C3(C)CC(O)C2(COC(=O)c2ccccc2)C(OC(=O)c2ccccc2)C1OC(=O)c1ccccc1 (stereo not drawn) [Compound K20]	moderate

same assay, conditions: esterification products of core compound E4A with Isobutyryl chloride (Iso = Isobutyryl)

SMILES	Cytotoxicity activity
CC1(C)CC2C3=CCC4C5(C)CCC(O)C(C)(CO)C5CCC4(C)C3(C)CC(O)C2(COC(=O)c2ccccc2)C(OC(=O)c2ccccc2)C1OC(=O)c1ccccc1 (stereo not drawn) [Compound K20]	moderate

same assay, conditions: esterification products of core compound E4A with Myristoyl chloride (Myr = Myristoyl)

SMILES	Cytotoxicity activity
CC1(C)CC2C3=CCC4C5(C)CCC(O)C(C)(CO)C5CCC4(C)C3(C)CC(O)C2(COC(=O)c2ccccc2)C(OC(=O)c2ccccc2)C1OC(=O)c1ccccc1 (stereo not drawn) [Compound K20]	moderate

same assay, conditions: esterification products of core compound E4A with Octanoyl chloride (Oct = Octanoyl)

SMILES	Cytotoxicity activity
CC1(C)CC2C3=CCC4C5(C)CCC(O)C(C)(CO)C5CCC4(C)C3(C)CC(O)C2(COC(=O)c2ccccc2)C(OC(=O)c2ccccc2)C1OC(=O)c1ccccc1 (stereo not drawn) [Compound K20]	moderate
